The source of these data is patent US7030242B2, “Selective inhibition of aggrecanase in osteoarthritis treatment” (Pfizer Inc, priority 1999, dated 2006).

Bounds are passed on as bounds.

For experiment [1], the target named is T1, Human recombinant collagenase-1 (Homo sapiens, UniProt P03956).
T1 sequence (P03956 100-469): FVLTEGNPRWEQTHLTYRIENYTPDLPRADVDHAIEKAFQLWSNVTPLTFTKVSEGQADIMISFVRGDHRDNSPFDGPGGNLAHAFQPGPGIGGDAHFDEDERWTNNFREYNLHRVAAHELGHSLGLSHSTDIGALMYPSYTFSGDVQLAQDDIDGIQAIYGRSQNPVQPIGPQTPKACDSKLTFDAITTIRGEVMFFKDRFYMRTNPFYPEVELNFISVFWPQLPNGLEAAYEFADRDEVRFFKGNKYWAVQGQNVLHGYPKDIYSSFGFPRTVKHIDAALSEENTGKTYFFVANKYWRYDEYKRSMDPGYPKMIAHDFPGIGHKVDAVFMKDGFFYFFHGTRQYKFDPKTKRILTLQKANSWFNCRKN
Briefly: Inhibition of human collagenase-1 (recombinant collagenase-1 assay). The conditions noted are these: Table 2, read-out: MMP-1 (IC50 class). The format is biochemical. On the procedure:
Inhibition of Human Collagenase-1 (Recombinant Collagenase-1 Assay)
This assay is used in the invention to measure the potency (IC50s) of compounds for collagenase-1.
Human recombinant collagenase-1 is activated with trypsin. The amount of trypsin is optimized for each lot of collagenase-1, but a typical reaction uses the following ratio: 5 mg trypsin per 100 mg of collagenase.
Stock solutions (10 mM) of inhibitors are made up in dimethylsulfoxide and then diluted using the following scheme: • 10 mM------>120 μM------>12 μM------>1.2 μM------>0.12 μM
Twenty-five microliters of each concentration is then added in triplicate to appropriate wells of a 96 well microfluor plate. The final concentration of inhibitor will be a 1:4 dilution after addition of enzyme and substrate. Positive controls (enzyme, no inhibitor) are set up in wells D7–D12 and negative controls (no enzyme, no inhibitors) are set in wells D1–D6.
Collagenase-1 is diluted to 240 ng/ml and […] is then added to appropriate wells of the microfluor plate. Final concentration of collagenase in the assay is 60 ng/ml.
Substrate (DNP-Pro-Cha-Gly-Cys(Me)-His-Ala-Lys(NMA)-NH2) is made as a 5 mM stock in dimethylsulfoxide and then diluted to 20 μM in assay buffer. The assay is initiated by the addition of […] substrate per well of the microfluor plate to give a final concentration of 10 μM.
Fluorescence readings (360 nm excitation, 460 nm emission) are taken at time 0 and then at about 20 minute intervals. The assay is conducted at a temperature of about 20 to about 25° C., preferably about 23° C. with a typical assay time of about 3 hours.
Fluorescence versus time is then plotted for both the blank and collagenase containing samples (data from triplicate determinations is averaged). A time point that provides a good signal (at least five fold over the blank) and that is on a linear part of the curve (usually around 120 minutes) is chosen to determine IC50 values. The zero time is used as a blank for each compound at each concentration and these values are subtracted from the 120 minute data. Data is plotted as inhibitor concentration versus % control (inhibitor fluorescence divided by fluorescence of collagenase alone ×100).

Experiment [2] addresses Human recombinant collagenase-3 (Homo sapiens, UniProt P45452). Description: Inhibition of human collagenase-3 (recombinant collagenase-3 assay). The class given is biochemical. To be noted: Table 2; recombinant collagenase-3 assay; read-out: MMP-13 (IC50 class). As to the method:
Inhibition of Human Collagenase-3 (Recombinant Collagenase-3 Assay)
This assay is used in the invention to measure the potency (IC50s) of compounds for collagenase-3.
Human recombinant collagenase-3 is activated with 2 mM APMA (p-aminophenyl mercuric acetate) for about 2.0 hours, at about 37° C. and is diluted to about 240 ng/ml in assay buffer (50 mM Tris, pH 7.5, 200 mM sodium chloride, 5 mM calcium chloride, […], 0.02% BRIJ-35). Twenty-five micro-liters of diluted enzyme is added per well of a 96 well microfluor plate.
The final concentrations in the assay are 30 μM, 3 μM, 0.3 μM, and 0.03 μM.
Fluorescence readings (360 nm excitation; 450 nm emission) are taken at time 0 and about every 5 minutes for about 1 hour.
Positive controls and negative controls are set up in triplicate as outlined in the collagenase-1 assay. IC50's are determined as per inhibition of human collagenase (collagenase-1).

Another experiment concerns aggrecanase. Description: Aggrecanase chondrocyte assay (35S-proteoglycan release, IL-1 stimulated). The class given is cell-based, porcine. The conditions noted are these: Table 2; aggrecanase chondrocyte assay; read-out: Agg (aggrecanase IC50 class). As to the method: Aggrecanase Chondrocyte Assay
This assay is used in the invention to measure the potency (IC50s) of compounds for aggrecanase.
Primary porcine chondrocytes from articular joint cartilage are isolated by sequential trypsin and collagenase digestion followed by collagenase digestion overnight and are plated at 2×10^5 cells per well into 48 well plates with 5 μCi/ml ^35S (1000 Ci/mmol) sulphur in type I collagen coated plates. Cells are allowed to incorporate label into their proteoglycan matrix (approximately 1 week) at 37° C., under an atmosphere of 5% CO2.
The night before initiating the assay, chondrocyte monolayers are washed two times in DMEM/1% PSF/G and then allowed to incubate in fresh DMEM/1% FBS overnight.
The following morning chondrocytes are washed once in DMEM/1% PSF/G. The final wash is allowed to sit on the plates in the incubator while making dilutions. Media and dilutions can be made as described in the Table I below.
Plates are labeled and only the interior 24 wells of the plate are used. On one of the plates, several columns are designated as IL-1 (no drug) and Control (no IL-1, no drug). These control columns are periodically counted to monitor 35S-proteoglycan release. Control and IL-1 media are added to wells (450 μl) followed by compound (50 μl) so as to initiate the assay. Plates are incubated at 37° C., with a 5% CO2 atmosphere.
At 40–50% release (when CPM from IL-1 media is 4–5 times control media) as assessed by liquid scintillation counting (LSC) of media samples, the assay is terminated (about 9 to about 12 hours). Media is removed from all wells and placed in scintillation tubes. Scintillate is added and radioactive counts are acquired (LSC). To solubilize cell layers, 500 μL of papain digestion buffer (0.2 M Tris, pH 7.0, 5 mM EDTA, 5 mM DTT, and 1 mg/ml papain) is added to each well. Plates with digestion solution are incubated at 60° C. overnight. The cell layer is removed from the plates the next day and placed in scintillation tubes. Scintillate is then added, and samples counted (LSC).
The percent of released counts from the total present in each well is determined. Averages of the triplicates are made with control background subtracted from each well.

The target in another experiment is T2, TACE (Homo sapiens, UniProt P78536).
T2 construct: Human mononuclear cells are isolated from anti-coagulated human blood; endogenous in cells; host or cells: human peripheral blood mononuclear cells, LPS stimulated
T2 sequence (P78536 215-824): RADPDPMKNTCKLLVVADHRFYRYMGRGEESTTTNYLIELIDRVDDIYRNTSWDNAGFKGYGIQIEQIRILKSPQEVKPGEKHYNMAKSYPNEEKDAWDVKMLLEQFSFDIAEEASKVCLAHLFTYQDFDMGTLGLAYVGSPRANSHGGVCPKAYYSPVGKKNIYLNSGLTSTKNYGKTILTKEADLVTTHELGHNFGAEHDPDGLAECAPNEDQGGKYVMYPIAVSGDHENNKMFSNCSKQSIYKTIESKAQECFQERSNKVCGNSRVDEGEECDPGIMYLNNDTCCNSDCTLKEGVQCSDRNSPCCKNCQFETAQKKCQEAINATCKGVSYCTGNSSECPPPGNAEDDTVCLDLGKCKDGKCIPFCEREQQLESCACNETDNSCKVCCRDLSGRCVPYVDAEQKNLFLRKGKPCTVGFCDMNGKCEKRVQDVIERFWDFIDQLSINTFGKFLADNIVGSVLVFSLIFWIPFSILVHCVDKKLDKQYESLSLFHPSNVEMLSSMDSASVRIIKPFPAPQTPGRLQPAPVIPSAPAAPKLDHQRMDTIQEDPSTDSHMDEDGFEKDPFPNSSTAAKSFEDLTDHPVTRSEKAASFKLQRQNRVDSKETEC
Briefly: Inhibition of soluble TNF-α production (TACE whole blood assay). To be noted: Table 2, read-out: TACE (IC50 class). The class given is cell-based. On the procedure:
Inhibition of Soluble TNF-α Production (TACE Whole Blood Assay)
This assay is used in the invention to measure the potency (IC50s) of compounds for TACE.
Human mononuclear cells are isolated from anti-coagulated human blood using a one-step Ficoll-hypaque separation technique. (2) The mononuclear cells are washed three times in Hanks balanced salt solution (HBSS) with divalent cations and re-suspended to a density of 2×10^6/ml in HBSS containing 1% BSA.
180 μL of the cell suspension was aliquoted into flat bottom 96 well plates (Costar). Additions of compounds and LPS (100 ng/ml final concentration) gives a final volume of 200 μL. All conditions are performed in triplicate. After about a four hour incubation at about 37° C. in an humidified CO2 incubator, plates are removed and centrifuged (about 10 minutes at approximately 250×g) and the supernatants removed and assayed for TNF-α using the R&D ELISA Kit.

For orientation: IC50 means the midpoint of a concentration-inhibition curve. As to `C[C@@]1(O)CCCN(S(=O)(=O)c2ccc(OCc3ccc(Cl)cc3F)cc2)[C@H]1C(=O)NO` [(2R,3R) 1-[4-(2-fluoro-4-chloro-benzyloxy)-benzenesulfonyl]-3-hydroxy-3-methyl-piperidine-2-carboxylic acidhydroxyamide], the half-inhibitory concentration (IC50) in experiment [1] is 20 to 200 nM; in experiment [2] it was under 10 nM; in the experiment on aggrecanase, under 10 nM; on TACE, over 40000 nM.
`Cc1cc(F)ccc1COc1ccc(S(=O)(=O)N2CC(=O)N[C@@H](C)[C@@H]2C(=O)NO)cc1` [(2R,3S) 1-[4-(4-fluoro-2-methyl-benzyloxy)-benzenesulfonyl]-3-methyl-5-oxo-piperazine-2-carboxylic acidhydroxyamide]: the IC50 was over 1000 nM in experiment [1], 10 to 20 nM in experiment [2], under 10 nM in the experiment on aggrecanase and under 10000 nM at TACE.
As for `CNC(=O)N1CCN(S(=O)(=O)c2ccc(OCc3ccc(F)cc3F)cc2)[C@@H](C(=O)NO)[C@@H]1C` [(2R,3S) 4-[4-(2,4-difluoro-benzyloxy)-benzenesulfonyl]-3-methyl-4-carboxylic acidmethylamide-piperazine-2-carboxylic acidhydroxyamide], the IC50 in experiment [1] is 200 to 1000 nM; in experiment [2] it was under 10 nM; in the experiment on aggrecanase, 10 to 20 nM; at TACE, 10000 to 20000 nM.
